Measured values taken from ChEMBL document CHEMBL1141688, “Design, synthesis and preliminary biological evaluation of new hydroxamate histone deacetylase inhibitors as potential antileukemic agents” (Bioorg Med Chem Lett, 2008).
pIC50: −log10 of the molar value.

Experiments:
NB-4 [1] = test: Antiproliferative activity against human NB4 cells after 48 hrs; type: functional, cell-based; settings: NB-4, 48 h
NB-4 [2] = test: Induction of apoptosis in human NB4 cells assessed as necrotic cells at 2.5 uM after 48 hrs using annexin V-fluos/propidium iodide staining by cytofluorimetric analysis; type: functional
NB-4 [3] = test: Induction of apoptosis in human NB4 cells assessed as early apoptotic cells at 2.5 uM after 48 hrs using annexin V-fluos/propidium iodide staining by cytofluorimetric analysis; type: functional
NB-4 [4] = test: Induction of apoptosis in human NB4 cells assessed as late apoptotic cells at 2.5 uM after 48 hrs using annexin V-fluos/propidium iodide staining by cytofluorimetric analysis; type: functional
NB-4 [5] = test: Induction of apoptosis in human NB4 cells assessed as viable cells at 2.5 uM after 48 hrs using annexin V-fluos/propidium iodide staining by cytofluorimetric analysis; type: functional; settings: NB-4, 48 h, read-out: Activity
NB-4 [6] = test: Induction of apoptosis in human NB4 cells assessed as necrotic cells at 5 uM after 48 hrs using annexin V-fluos/propidium iodide staining by cytofluorimetric analysis; type: functional
NB-4 [7] = test: Induction of apoptosis in human NB4 cells assessed as early apoptotic cells at 5 uM after 48 hrs using annexin V-fluos/propidium iodide staining by cytofluorimetric analysis; type: functional
NB-4 [8] = test: Induction of apoptosis in human NB4 cells assessed as late apoptotic cells at 5 uM after 48 hrs using annexin V-fluos/propidium iodide staining by cytofluorimetric analysis; type: functional
NB-4 [9] = test: Induction of apoptosis in human NB4 cells assessed as viable cells at 5 uM after 48 hrs using annexin V-fluos/propidium iodide staining by cytofluorimetric analysis; type: functional; settings: NB-4, 48 h, read-out: Activity

Question: How did the pIC50 (NB-4 [1]) turn out when `C[C@H]1N=C(c2ccccc2)c2cc(C#CCCCC(=O)NO)ccc2N(C)C1=O` was run?
Answer: 5.32

Question: And the Activity (NB-4 [2])?
Answer: 0.4%

Question: What about the Activity (NB-4 [3]) of the same compound?
Answer: 1.5%

Question: What about the Activity (NB-4 [4]) of the same compound?
Answer: 8.3%

Question: What about the viability at 2.5 µM (NB-4 [5]) of the same compound?
Answer: 89.8%

Question: `CN1C(=O)CN=C(c2ccccc2)c2cc(C#CCCCC(=O)NO)ccc21` was tested. Which pIC50 (NB-4 [1]) did it give?
Answer: 6.21

Question: `C[C@@H]1N=C(c2ccccc2)c2cc(NC(=O)CCCCCCC(=O)NO)ccc2N(C)C1=O` was tested. Which pIC50 (NB-4 [1]) did it give?
Answer: 5.23

Question: `C[C@H]1N=C(c2ccccc2)c2cc(NC(=O)CCCCCCC(=O)NO)ccc2N(C)C1=O` was tested. Which pIC50 (NB-4 [1]) did it give?
Answer: 5.43

Question: `CN1C(=O)CN=C(c2ccccc2)c2cc(NC(=O)CCCCCCC(=O)NO)ccc21` was tested. Which pIC50 (NB-4 [1]) did it give?
Answer: 5.60

Question: With `C[C@@H]1N=C(c2ccccc2)c2cc(C#CCCCC(=O)NO)ccc2N(C)C1=O` as the compound, how does the pIC50 (NB-4 [1]) read?
Answer: 6.21

Question: What about the Activity (NB-4 [2]) of the same compound?
Answer: 0.6%

Question: What about the Activity (NB-4 [3]) of the same compound?
Answer: 30.8%

Question: And the Activity (NB-4 [4])?
Answer: 56.6%

Question: And the viability at 2.5 µM (NB-4 [5])?
Answer: 12%

Question: With `CC1N=C(c2ccccc2)c2cc(NC(=O)CCCCCCC(=O)NO)ccc2N(C)C1=O` (racemic) as the compound, how does the pIC50 (NB-4 [1]) read?
Answer: 5.39

Question: With `CC1N=C(c2ccccc2)c2cc(C#CCCCC(=O)NO)ccc2N(C)C1=O` (racemic) as the compound, how does the pIC50 (NB-4 [1]) read?
Answer: 5.90

Question: And the Activity (NB-4 [6])?
Answer: 1.7%

Question: What about the Activity (NB-4 [7]) of the same compound?
Answer: 35.6%

Question: What about the Activity (NB-4 [8]) of the same compound?
Answer: 54.1%

Question: What about the viability at 5 µM (NB-4 [9]) of the same compound?
Answer: 8.6%
